Data reported in US9205073B2, “Method for treating virus infection using derivative of aniline” (CHINA MEDICAL UNIVERSITY, priority 2014, dated 2015).

System: PKR, OAS, IFN-α and interferon receptor
Test: Real-time PCR of anti-virus gene expression in JEV T1P1-infected TE671 cells
Format: cell-based
Conditions: JEV T1P1-infected TE671 cells (M.O.I.=1), 8 hours, compound 125
Description: TE671 cells were cultured in a 6-well culture plate in accordance with the experimental conditions. The next day, TE671 cells were infected with the JEV T1P1 virus strain (M.O.I.=1), and various concentrations (the final concentration of compound 1 were about 0 or 125 respectively) of compound 1 were added into different wells simultaneously. The cells were then incubated in an incubator (37° C., 5% CO2) for 8 hours, and then collected. The cells were re-suspended with PBS and precipitated by centrifugation (2000 rpm, 5 minutes), and then extracted by Pure Link RNA Mini Kit to obtain the RNA. If the obtained RNA was desired to be stored at −20° C., then the RNA would have to reverse transcribed into cDNA using the following reverse transcription PCR (RT-PCR) steps: i) 11 μl RNA was placed into a microtube, and put into a 55° C. […]
The expression of anti-virus genes was analyzed by real-time PCR. […] Then, the amount of fluorescence of each cycle was determined by ABI Prism 7500 software. The fold difference of each gene as compared to the control group was calculated by using Ct to calculate ΔCt and ΔΔCt (i.e., ΔCt=Ct. exp−Ct. control, ΔΔCt=ΔCt. exp−ΔCt. mock). Then, 2^−ΔΔCt can thereby be calculated.

CCOC(=O)C1=C(Nc2cc(C)cc(C)c2)OCC1=O [Compound 1, ethyl 2-(3′,5′-dimethylanilino)-4-oxo-4,5-dihydrofuran-3-carboxylate]
relative gene expression levels of PKR, OAS, IFN-α and interferon receptor: increase
